Read-outs that look alike come from different tables or passages of the source.
Tests used:
TcSpdSyn [1] = target: T1, TcSpdSyn (Trypanosoma cruzi, UniProt Q4DA73); test: biochemical; assay type: biochemical; conditions: for Hill (4PL curve fitting parameter) / Max (4PL curve fitting parameter, inhibition%) / min (4PL curve fitting parameter, inhibition%) / LoggedX50 (4PL curve fitting parameter): Supplementary Table 3; for LoggedX50 (4PL curve fitting parameter): Log10 of X50
Procedure: To identify TcSpdSyn inhibitors, we performed an in vitro enzyme inhibition assay on 176 compounds sourced from the chemical compound library at Astellas Pharma.
The TcSpdSyn inhibition assay was performed essentially as previously[27] described. Briefly, the assay was an enzyme-coupled assay incorporating spermidine/spermine N(1)-acetyltransferase 1 (SSAT1). 7-Diethylamino-3-(4-maleimidylphenyl)-4-methylcoumarin (CPM) (cat. D-346, Thermo Fischer Scientific) was used to measure the coenzyme A produced by the SSAT1 reaction. […] The fluorescence signal was then detected in a plate reader (Paradigm, Molecular Devices Inc.) with excitation at 405 nm and emission at 530 nm. Each IC50 value was measured using eight different concentrations in quadruplicate. […] Compounds 1, 3, and 4 were used in their salt forms, whereas compound 2 was used in its free form. The corresponding salts were oxalic acid for compound 1 and HCl for compounds 3 and 4. These compounds were dissolved in dimethyl sulfoxide (DMSO), and the maximum final DMSO concentration in the assays was 1.3%.
Supplementary Figure 3. The fitting curve for IC50 calculation of the compounds on Table 1 (Compounds 1, 2, 3, 4, and 4MCHA correspond to (a), (b), (c), (d) and (e), respectively). The vertical line and horizontal axis's represent inhibition% for TcSpdSyn and compound concentration. The closed circles show the inhibition% measured at each dose. The error bars indicate the standard error of the inhibition% measured at each dose. For curve fitting, the following four paramter logoistic (4PL) model1 is used. The paramter […]

TcSpdSyn [2] = target: T1, TcSpdSyn; set-up: method as in PMID 26327378; conditions: cited from earlier work

T1 sequence (Q4DA73 entry or part of it): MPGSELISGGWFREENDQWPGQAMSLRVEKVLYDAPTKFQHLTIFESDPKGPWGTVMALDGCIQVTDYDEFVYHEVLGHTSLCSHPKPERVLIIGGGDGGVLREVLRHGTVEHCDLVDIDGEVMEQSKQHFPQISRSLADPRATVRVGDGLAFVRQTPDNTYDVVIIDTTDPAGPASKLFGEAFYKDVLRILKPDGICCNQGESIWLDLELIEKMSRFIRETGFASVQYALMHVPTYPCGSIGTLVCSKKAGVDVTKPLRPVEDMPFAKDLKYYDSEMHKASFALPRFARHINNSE

SMILES | IC50 (TcSpdSyn [1]) | Hill (4PL curve fitting parameter) (TcSpdSyn [1]) | Max (4PL curve fitting parameter, inhibition%) (TcSpdSyn [1]) | min (4PL curve fitting parameter, inhibition%) (TcSpdSyn [1]) | LoggedX50 (4PL curve fitting parameter) (TcSpdSyn [1]) | IC50 (TcSpdSyn [1]; read-out: IC50 for TcSpdSyn) | IC50 (TcSpdSyn [2])
CCOc1ccc2c(c1)c(CCN)cn2CC [Compound 3, 2-(5-Ethoxy-1-ethyl-1H-indol-3-yl)ethanamine] | 113 µM | 1.44 | 100.00 | 0.00 | 2.05 | – | –
O=c1nc(Nc2nc(O)nc(O)n2)sc2ccccc12 [Compound 2, 2-[(4,6-dihydroxy-1,3,5-triazin-2-yl)amino]-4H-1,3-benzothiazin-4-one] | – | 1.27 | 100.00 | 0.00 | 1.46 | 28 µM | –
NCCc1ccc(O)c(O)c1 [Compound 4, 4-(2-Aminoethyl)-1,2-benzenediol] | – | 1.03 | 100.00 | 0.00 | 1.82 | 66 µM | –
NCCc1ccccc1F [Compound 1, 2-(2-Fluorophenyl)ethanamine] | 124 µM | 0.90 | 100.00 | 0.00 | 2.09 | – | –
C[C@H]1CC[C@H](N)CC1 [Compound 4MCHA, trans-4-methylcyclohexylamine, reference compound] | – | 1.01 | 100.00 | 0.00 | 0.29 | 1.9 µM | 1.7 µM
